The values below come from patent US20160376286A1, “Pyrimidin-4-one derivatives and their use in the tratement, amelioration or prevention of a viral disease” (priority 2011, published 2016).

Where two headings read alike, the source gives them in different places.

The subject of this assay is influenza A virus A/Aichi/2/68 (H3N2). As to the kind of experiment: Cytopathic effect (CPE) assay H3N2 in MDCK cells. Conditions: for inhibition at 50 µM: Influenza A virus, H3N2, MDCK, read-out: CPE H3N2 reduction (%). It counts as cell-based, influenza A virus (A/Aichi/2/68 (H3N2)); MDCK cells. The protocol: A possible measure of the […] antiviral activity of the compounds having the formula I or II is the CPE assay disclosed herein. […] In this connection, the reduction in the virus-mediated cytopathic effect (CPE) upon treatment with the compounds was calculated as follows: The cell viability of infected-treated and uninfected-treated cells was determined using an ATP-based cell viability assay (Promega). The response in relative luminescent units (RLU) of infected-untreated samples was subtracted from the response (RLU) of the infected-treated samples and then normalized to the viability of the corresponding uninfected sample resulting in % CPE reduction.
The influenza A virus (IAV) was obtained from American Tissue Culture Collection (A/Aichi/2/68 (H3N2); VR-547). Virus stocks were prepared by propagation of virus on Mardin-Darby canine kidney (MDCK; ATCC CCL-34) cells and infectious titres of virus stocks were determined by the 50% tissue culture infective dose (TCID50) analysis as described in Reed, L. J., and H. Muench. 1938, Am. J. Hyg. 27:493-497.
MDCK cells were seeded in 96-well plates at 2×10^4 cells/well using DMEM/Ham's F-12 (1:1) medium containing 10% foetal bovine serum (FBS), 2 mM L-glutamine and 1% antibiotics (all from PAA). Until infection the cells were incubated for 5 hrs at 37° C., 5.0% CO2 to form a -80% confluent monolayer on the bottom of the well. Each test compound was dissolved in DMSO and generally tested at 25 μM and 250 μM. In those cases where the compounds were not soluble at that concentration they were tested at the highest soluble concentration. The compounds were diluted in infection medium (DMEM/Ham's F-12 (1:1) containing 5 μg/ml trypsin, and 1% antibiotics) for a final plate well DMSO concentration of 1%. The virus stock was diluted in infection medium (DMEM/Ham's F-12 (1:1) containing 5 μg/m1Trypsin, 1% DMSO, and 1% antibiotics) to a theoretical multiplicity of infection (M01) of 0.05.
After removal of the culture medium and one washing step with PBS, virus and compound were added together to the cells. In the wells used for cytotoxicity determination (i.e. in the absence of viral infection), no virus suspension was added. Instead, infection medium was added. Each treatment was conducted in two replicates. After incubation at 37° C., 5% CO2 for 48 hrs, each well was observed microscopically for apparent cytotoxicity, precipitate formation, or other notable abnormalities. Then, cell viability was determined using
CellTiter-Glo luminescent cell viability assay (Promega). The supernatant was removed carefully and 65 μl of the reconstituted reagent were added to each well and incubated with gentle shaking for 15 min at room temperature. Then, 60 μl of the solution was transferred to an opaque plate and luminescence (RLU) was measured using Synergy HT plate reader (Biotek).
Relative cell viability values of uninfected-treated versus uninfected-untreated cells were used to evaluate cytotoxicity of the compounds. Substances with a relative viability below 80% at the tested concentration were regarded as cytotoxic and retested at lower concentrations.
Reduction in the virus-mediated cytopathic effect (CPE) upon treatment with the compounds was calculated as follows: The response (RLU) of infected-untreated samples was subtracted from the response (RLU) of the infected-treated samples and then normalized to the viability of the corresponding uninfected sample resulting in % CPE reduction.
Background: Protection from cytopathic effect is a common read-out in antiviral testing.

Take `Cl.O=C(NO)c1cc(N2CCCCC2)ccn1`: the “CPE H3N2 reduction (%)” value (activity conc 5) is −4.1%.
Consider `CCONC(=O)c1cc(N2CCOCC2)ccn1.Cl`, for which the “CPE H3N2 reduction (%)” value (activity conc 50 (μM)) turned out to be 1.3%.
Still for that read-out and setting: the result for `CCONC(=O)c1cc(N)ccn1.Cl` reads 10.5%.
Still for that read-out and setting: the result for `CCONC(=O)c1ccccn1` reads 12.5%; that for `CCONC(=O)c1ccc2ccccc2n1`, −2.2%.
Regarding `CCONC(=O)c1ccc(-c2cccc(CN(C)CCCc3ccccc3)c2)cn1.Cl`, the “CPE H3N2 reduction (%)” value (activity conc 20) is 1.6%.
For the compound `CCONC(=O)c1cc(NCc2cccc(OCc3ccccc3)c2)ccn1.Cl`, where the note is “activity conc 1”, the “CPE H3N2 reduction (%)” value turned out to be 1.2%.
On to `O=C(NOCc1ccccc1)c1ccc(N2CCCC2)cn1`, for which the “CPE H3N2 reduction (%)” value (activity conc 20) is −8.7%.
In the case of `O=C(c1ccc(N2CCCC2)cn1)N(Cc1ccccc1)OCc1ccccc1`, the “CPE H3N2 reduction (%)” value (activity conc 5) is recorded as −2.7%.
In the case of `O=C(c1cc2ccccc2cn1)N(Cc1ccccc1)OCc1ccccc1`, under “activity conc 5”, the “CPE H3N2 reduction (%)” value was found to be 1.3%.
For `Cc1cccc(-c2ccc(C(=O)N(O)Cc3ccccc3)nc2)c1`, the “CPE H3N2 reduction (%)” value (activity conc 10) was found to be 15.5%.
For the compound `O=C(NOCc1ccccc1)c1cc2ccccc2cn1`, the “CPE H3N2 reduction (%)” value (activity conc 5) is recorded as −1.5%.
For the compound `O=C(c1cc2ccccc2cn1)N(O)CCc1ccccc1`, the “CPE H3N2 reduction (%)” value (activity conc 20) is recorded as −1.8%.
Turning to `O=C(c1cc(N2CCCCC2)ccn1)N(O)CCCc1ccccc1`, the “CPE H3N2 reduction (%)” value (activity conc 2) is 7.7%.
Still for that read-out and setting: the result for `CC(C)c1cccc(-c2ccc(C(=O)NO)nc2)c1` reads −2.1%; that for `O=C(c1cc2ccccc2cn1)N(O)CCCc1ccccc1`, 4.4%.
Same read-out and setting: the result for `CC(C)c1cccc(-c2ccc(C(=O)N(O)CCc3ccccc3)nc2)c1` reads 2.1%.
Turning to `O=C(c1ccc(N2CCCCC2)cn1)N(O)Cc1ccccc1`, under “activity conc 5”, the “CPE H3N2 reduction (%)” value is −3.4%.
Take `O=C(c1cc(NS(=O)(=O)Cc2ccccc2)ccn1)N(O)Cc1ccccc1`: under “activity conc 50 (μM)”, the “CPE H3N2 reduction (%)” value amounted to 6.2%.
Take `O=C(c1cc(-c2ccccc2)ccn1)N(O)Cc1ccccc1`: for the setting “activity conc 10”, the “CPE H3N2 reduction (%)” value is recorded as −9.3%.
On to `O=C(NO)c1cc(N2CCOCC2)ccn1`, for which the “CPE H3N2 reduction (%)” value (activity conc 50 (μM)) is −7.1%.
Regarding `O=C(c1cc(NS(=O)(=O)c2ccccc2)ccn1)N(O)Cc1ccccc1`, the “CPE H3N2 reduction (%)” value (activity conc 50 (μM)) is −5.2%.
Take `CN(Cc1ccccc1)c1ccnc(C(=O)N(O)Cc2ccccc2)c1`: under “activity conc 5”, the “CPE H3N2 reduction (%)” value was determined as 3.8%.
Take `O=C(c1ccc(-c2ccccc2)cn1)N(O)Cc1ccccc1`: for the setting “activity conc 12”, the “CPE H3N2 reduction (%)” value was 13.4%.
Take `O=C(NO)c1ccc(-c2ccccc2)cn1`: for the setting “activity conc 12”, the “CPE H3N2 reduction (%)” value was found to be 21.7%.
For `O=C(NO)c1cc(-c2ccc(Cl)cc2)ccn1`, where the note is “activity conc 5”, the “CPE H3N2 reduction (%)” value is given as 26.6%.
As to `C[C@@H]1CN(c2ccnc(C(=O)N(O)Cc3ccccc3)c2)C[C@H](C)O1`, the “CPE H3N2 reduction (%)” value (activity conc 50 (μM)) is listed as 10.5%.
Consider `O=C(c1cc(-c2ccc(Cl)cc2)ccn1)N(O)Cc1ccccc1`, for which the “CPE H3N2 reduction (%)” value (activity conc 2) is on record as −6.7%.
On to `O=C(c1cc(-c2ccc(Cl)c(Cl)c2)ccn1)N(O)Cc1ccccc1`, for which the “CPE H3N2 reduction (%)” value (activity conc 5) amounted to 8.1%.
Same read-out and setting: as for `NC(=O)c1cccc(-c2ccnc(C(=O)N(O)Cc3ccccc3)c2)c1`, the figure is −2.7%.
As to `CN(C)C1CCN(c2ccnc(C(=O)N(O)Cc3ccccc3)c2)CC1`, the “CPE H3N2 reduction (%)” value (activity conc 50 (μM)) came out at 12.3%.
As for `O=C(c1cc(-c2ccccc2)ccn1)N(O)Cc1ccc(F)cc1`, under “activity conc 1”, the “CPE H3N2 reduction (%)” value is −3.2%.
`O=C(c1cc(N2CCCC(F)(F)C2)ccn1)N(O)Cc1ccccc1`: the “CPE H3N2 reduction (%)” value (activity conc 50 (μM)) stood at 8.9%.
Still for that read-out and setting: as for `CN1CCN(c2ccnc(C(=O)N(O)Cc3ccccc3)c2)CC1`, the figure is 2.4%; as for `O=C(c1cc(N2CCC(N3CCCC3)CC2)ccn1)N(O)Cc1ccccc1`, 10.7%.
Consider `CC(C)(C)OC(=O)NC1CCN(c2ccnc(C(=O)N(O)Cc3ccccc3)c2)CC1`, for which the “CPE H3N2 reduction (%)” value (activity conc 50 (μM)) stood at 8.3%.
In the case of `CC(C)(C)OC(=O)N1CC=C(c2ccnc(C(=O)N(O)Cc3ccccc3)c2)CC1`, the “CPE H3N2 reduction (%)” value (activity conc 5) is recorded as 1.2%.
As to `CN(C)CCNC(=O)c1cccc(-c2ccnc(C(=O)N(O)Cc3ccccc3)c2)c1`, under “activity conc 50 (μM)”, the “CPE H3N2 reduction (%)” value was 8.9%.
The same measure, in the same setting: as for `O=C(c1cc(N2CCC(N3CCCCC3)CC2)ccn1)N(O)Cc1ccccc1`, the figure is 18.8%.
As for `NC(=O)c1ccc(-c2ccnc(C(=O)N(O)Cc3ccccc3)c2)cc1`, the “CPE H3N2 reduction (%)” value (activity conc 5) is given as −2.5%.
`CN(C)S(=O)(=O)c1cccc(-c2ccnc(C(=O)N(O)Cc3ccccc3)c2)c1`: where the note is “activity conc 5”, the “CPE H3N2 reduction (%)” value is recorded as −1.8%.
On to `NC1CCN(c2ccnc(C(=O)N(O)Cc3ccccc3)c2)CC1`, for which the “CPE H3N2 reduction (%)” value (activity conc 50 (μM)) was determined as 3.2%.
On the same count and under the same terms, as for `O=C(c1cc(N2CCC3(CC2)OCCO3)ccn1)N(O)Cc1ccccc1`, the figure is 9.5%; as for `CN(C)C(=O)c1cccc(-c2ccnc(C(=O)N(O)Cc3ccccc3)c2)c1`, 5.3%.
For the compound `O=C(c1cc(-c2cccc(CO)c2)ccn1)N(O)Cc1ccccc1`, for the setting “activity conc 5”, the “CPE H3N2 reduction (%)” value was 7.7%.
As for `CNC(=O)c1cccc(-c2ccnc(C(=O)N(O)Cc3ccccc3)c2)c1`, the “CPE H3N2 reduction (%)” value (activity conc 5) is recorded as −7.5%.
For the compound `CC(C)(C)OC(=O)N1CCN(c2ccnc(C(=O)N(O)Cc3ccccc3)c2)CC1`, the “CPE H3N2 reduction (%)” value (activity conc 50 (μM)) is 34%.
Regarding `CC1(C)C=C(c2ccnc(C(=O)N(O)Cc3ccccc3)c2)CC(C)(C)N1`, the “CPE H3N2 reduction (%)” value (activity conc 50 (μM)) is given as 2.8%.
For the compound `Cl.O=C(c1cc(C2CCNCC2)ccn1)N(O)Cc1ccccc1`, for the setting “activity conc 50 (μM)”, the “CPE H3N2 reduction (%)” value was −1.4%.
For `Cl.O=C(NO)c1cc(NS(=O)(=O)Cc2ccc(F)cc2)ccn1`, the “CPE H3N2 reduction (%)” value (activity conc 50 (μM)) is −1.4%.
Consider `Cl.Cl.O=C(c1cc(N2CCNCC2)ccn1)N(O)Cc1ccccc1`, for which, where the note is “activity conc 50 (μM)”, the “CPE H3N2 reduction (%)” value is on record as −4.5%.
Still for that read-out and setting: the result for `Cl.O=C(NO)c1cc(NS(=O)(=O)Cc2cccc(F)c2)ccn1` reads −2.4%.
As to `CN(c1ccnc(C(=O)NO)c1)S(=O)(=O)Cc1ccccc1`, the “CPE H3N2 reduction (%)” value (activity conc 5) is −1.7%.
As for `O=C(c1cc(C2=CCC3(CC2)OCCO3)ccn1)N(O)Cc1ccccc1`, the “CPE H3N2 reduction (%)” value (activity conc 50 (μM)) came out at 5.4%.
With `COC1=CC=C(c2ccnc(C(=O)N(O)Cc3ccccc3)c2)CC1`, under “activity conc 2”, the “CPE H3N2 reduction (%)” value is on record as −2.5%.
Regarding `CC(C)(C)OC(=O)N1CCC(c2ccnc(C(=O)N(O)Cc3ccccc3)c2)CC1`, the “CPE H3N2 reduction (%)” value (activity conc 20) is 31.3%.
As for `CC(C)(C)OC(=O)N1C=C(c2ccnc(C(=O)N(O)Cc3ccccc3)c2)CCC1`, the “CPE H3N2 reduction (%)” value (activity conc 2) is 3.9%.
Consider `CC(C)(C)OC(=O)N1CCC=C(c2ccnc(C(=O)N(O)Cc3ccccc3)c2)C1`, for which, under “activity conc 5”, the “CPE H3N2 reduction (%)” value stood at 10.2%.
In the case of `O=C(c1cc(C2=CCCCC2)ccn1)N(O)Cc1ccccc1`, the “CPE H3N2 reduction (%)” value (activity conc 1) came to 3.4%.
Turning to `Cl.O=C(c1cc(N2CCC(F)(F)CC2)ccn1)N(O)Cc1ccccc1`, the “CPE H3N2 reduction (%)” value (activity conc 50 (μM)) is −3.2%.
On to `CN1CC=C(c2ccnc(C(=O)N(O)Cc3ccccc3)c2)CC1`, for which, where the note is “activity conc 50 (μM)”, the “CPE H3N2 reduction (%)” value amounted to 10.6%.
For the compound `Cl.O=C(NO)c1cc(NS(=O)(=O)Cc2cc(Cl)cc(Cl)c2)ccn1`, the “CPE H3N2 reduction (%)” value (activity conc 20) is listed as 28.9%.
Same read-out and setting: as for `Cl.O=C(c1cc(N2CCC(F)(F)C2)ccn1)N(O)Cc1ccccc1`, the figure is 4.6%.
For `CC(C)(C)OC(=O)N1C2C=C(c3ccnc(C(=O)N(O)Cc4ccccc4)c3)CC1CC2` (centres unmarked), the “CPE H3N2 reduction (%)” value (activity conc 2) is given as −5.3%.
Regarding `O=C(NO)c1cc(NS(=O)(=O)Cc2cc(Cl)cc(Cl)c2)ccn1`, where the note is “activity conc 50 (μM)”, the inhibition at 50 µM worked out at 9.3%.
Still for that read-out and setting: the result for `O=C(NO)c1cc(NS(=O)(=O)Cc2cccc(C(F)(F)F)c2)ccn1` reads -5.8%.
Still for that read-out and setting: the result for `O=C(NO)c1cc(NS(=O)(=O)Cc2ccccc2Cl)ccn1` reads -1.5%.
Take `O=C(c1cc(N2CCCCC2)cc[n+]1[O-])N(O)Cc1ccccc1`: the “CPE H3N2 reduction (%)” value (activity conc 5) was −1.83%.
For the compound `O=C(NO)c1cc(NS(=O)(=O)Cc2ccc(Cl)cc2)ccn1`, the inhibition at 50 µM (activity conc 50 (μM)) is -3.88%.
In the case of `O=C(NO)c1cc(NS(=O)(=O)Cc2cccc(Cl)c2)ccn1`, the inhibition at 50 µM stood at 60.1%.
Regarding `O=C(NO)c1cc(NS(=O)(=O)Cc2cccc(Br)c2)ccn1`, the inhibition at 50 µM (activity conc 50 (μM)) is 2.29%.
